# Measured values from article PMC6891263, “Alkaloids with Nitric Oxide Inhibitory Activities from the Roots of Isatis tinctoria” (Molecules, 2019).
# Tests used:
# [1] = test system: nitric oxide (NO) production, LPS-stimulated RAW264.7 macrophages; assay: Inhibitory assay of NO production (Griess reagent) in LPS-stimulated RAW264.7 macrophages; type: cell-based; settings: LPS 100 ng/mL for 24 h, 30 min pretreatment, mean ± SD (n = 3)
# Procedure: NO is a messenger molecule that is widespread in cells and can affect a variety of physiological and pathological processes. The production of NO causes tissue damage and can trigger a variety of inflammatory diseases. LPS induces the release of NO from RAW264.7 cells by detecting the release of NO widely used to investigate the anti-inflammatory effects of the compounds [2, 10, 40]. […]
# Inhibitory Assay of NO Production […]
# (§1) Compounds 1-23 were dissolved in dimethyl sulfoxide (DMSO) and diluted with complete medium to 6 degrees of concentration […]
# were maintained in Dulbecco’s modified Eagle’s medium (high-glucose condition) supplemented with 10% fetal calf serum, 100 U/mL penicillin, and 100 μg/mL streptomycin at 37 °C in 5% CO 2. RAW 264.7 cells were pretreated with each tested compound for 30 min, and then stimulated with lipopolysaccharide (LPS) (100 ng/mL) for 24 h. Aminoguanidine hydrochloride (100 μM) was used as a positive control. The NO production was measured using the Griess reagent. Briefly, the cell culture supernatant was reacted with equal volumes of Griess reagent in a 96-well plate for 10 min, and then the absorbance at 540 nm was measured by a plate reader. All experiments were performed in triplicate. All tested compounds were prepared as stock solutions with a concentration of 10 mM in DMSO. […]
# [2] = test system: RAW264.7 cells; assay: Cytotoxicity by Cell Counting Kit-8 (CCK-8); settings: CCK-8, tested at 25, 50 and 100 μM
# Procedure: Inhibitory Assay of NO Production
# Cytotoxicity was examined using the Cell Counting Kit-8 (CCK-8). RAW264.7 cells were taken from logarithmic growth stage and the cell density reached above 80%. And then, the cells were inoculated on 96-well cell culture plates at […], with 3 ×10^4 cells per well, cultured overnight at 37 °C with 5% CO 2. After 24h, the culture medium in the 96-well plate was discarded, the solution was changed and different concentrations (25 μM, 50 μM and 100 μM) of drugs were added. The absorbance at 450 nm was measured using a microplate reader (Thermo Fisher Scientific). Viability was defined as the ratio (expressed as a percentage) of absorbance values of treated cells to untreated cells.
# as §1
# were maintained in Dulbecco’s modified Eagle’s medium (high-glucose condition) supplemented with 10% fetal calf serum, 100 U/mL penicillin, and 100 μg/mL streptomycin at 37 °C in 5% CO 2. […]
# [3] = Mus musculus, RAW264.7, RAW 264.7 cell line
Compound,IC50 ([1]; RAW 264.7 cell line),Cytotoxicity [2],"IC50 [1, 3]"
2-(1H-indol-2-yl)-4(3H)-quinolinone [Compound 8],> 100 µM,,
"Cl.N=C(N)NN [AG, aminoguanidine hydrochloride, reference compound]",22.7 ± 0.4 µM,>100 µM,
"O=c1cc(-c2ccc(O)cc2)c2cc(O)ccc2[nH]1 [Compound 1, Isatisindigoticanine E]",,>100 µM,> 100 µM
"COc1cccc2[nH]c(=O)cc(-c3cc4ccccc4[nH]3)c12 [Compound 2, Isatisindigoticanine F]",,>100 µM,> 100 µM
"O=c1c2ccccc2nc2n1CCC(c1c[nH]c3ccccc13)=C2 [Compound 3, Isatisindigoticanine G]",,>100 µM,> 100 µM
"O=c1cc(-c2ccc(O)cc2)c2ccccc2[nH]1 [Compound 4, 4-p-hydroxyphenyl-2(1H)-quinolinone]",,>100 µM,> 100 µM
"COc1ccc2nc(-c3cc4ccccc4[nH]3)[nH]c(=O)c2c1 [Compound 5, 2-(1H-indol-2-yl)-6-methoxy-4(3H)-quinazolinone]",,>100 µM,> 100 µM
"O=c1[nH]c(-c2ccccc2O)nc2ccccc12 [Compound 6, 2-(2-hydroxyphenyl)-4(3H)-quinazolinone]",,>100 µM,> 100 µM
"C=CCCc1nc2ccccc2c(=O)[nH]1 [Compound 7, 2-(but-3-en-1-yl)-4(3H)-quinazolinone]",,>100 µM,> 100 µM
"O=C(O)CCn1c(=O)[nH]c2ccccc2c1=O [Compound 10, 3-(2,4-dioxo-1,2-dihydroquinazolin-3(4H)-yl)propanoic acid]",,>100 µM,> 100 µM
"O=c1[nH]c2ccccc2c(=O)n1CCCCO [Compound 11, indiforine C]",,>100 µM,> 100 µM
"O=C(O)CCCn1c(=O)[nH]c2ccccc2c1=O [Compound 12, 4-(2,4-dioxo-1,2-dihydroquinazolin-3(4H)-yl)butanoic acid]",,>100 µM,> 100 µM
"COC(=O)CCCn1c(=O)[nH]c2ccccc2c1=O [Compound 13, methyl 4-(2,4-dioxo-1,2-dihydroquinazolin-3(4H)-yl)butanoate]",,>100 µM,> 100 µM
"O=c1c2ccccc2ncn1-c1ccccc1O [Compound 14, 3-(2-hydroxyphenyl)-4(3H)-quinazolinone]",,>100 µM,> 100 µM
"O=C(O)c1ccccc1-n1cnc2ccccc2c1=O [Compound 15, 3-(2-carboxyphenyl)-4(3H)-quinazolinone]",,>100 µM,5 ± 1.3 µM
"Cc1nc(O)nc2ccccc12 [Compound 16, 4-methyl-1,2-dihydro-2-oxoquinazoline]",,>100 µM,> 100 µM
"Cc1nc2ccccc2c(=O)[nH]1 [Compound 17, 2-methyl-4(3H)-quinazolinone]",,>100 µM,
"Cc1c(O)c2ccccc2[nH]c1=O [Compound 18, 4-hydroxy-3-methyl-2(1H)-quinolinone]",,>100 µM,> 100 µM
"Nc1cc(C(=O)O)c2ccccc2n1 [Compound 19, 2-amino-4-quinolinecarboxylic acid]",,>100 µM,> 100 µM
"Oc1ccnc2ccccc12 [Compound 20, 4(1H)-quinolinone]",,>100 µM,
"O=C(O)c1cnc2ccccc2c1O [Compound 21, 4(1H)-quinolone-3-carboxylic acid]",,>100 µM,> 100 µM
"NC(=O)C(c1[nH]c2ccccc2c1OC1OC(CO)C(O)C(O)C1O)c1c[nH]c2ccccc12 (centres unmarked) [Compound 23, Isatindigoside D]",,>100 µM,> 100 µM
